Measurements taken from ChEMBL document CHEMBL1201862, “PubChem BioAssay data set” (2004).
The source made the active and inactive calls.

Experiments:
[1] = molecular target: T1, Neuropeptide Y receptor type 2 (Homo sapiens, UniProt P49146); assay: IC50 for human NPY-Y2 blockade – cell-based, counter-screen for NPY-Y1 antagonist project, dose response (AID 1278); assay type: functional
T1 sequence (P49146 whole entry): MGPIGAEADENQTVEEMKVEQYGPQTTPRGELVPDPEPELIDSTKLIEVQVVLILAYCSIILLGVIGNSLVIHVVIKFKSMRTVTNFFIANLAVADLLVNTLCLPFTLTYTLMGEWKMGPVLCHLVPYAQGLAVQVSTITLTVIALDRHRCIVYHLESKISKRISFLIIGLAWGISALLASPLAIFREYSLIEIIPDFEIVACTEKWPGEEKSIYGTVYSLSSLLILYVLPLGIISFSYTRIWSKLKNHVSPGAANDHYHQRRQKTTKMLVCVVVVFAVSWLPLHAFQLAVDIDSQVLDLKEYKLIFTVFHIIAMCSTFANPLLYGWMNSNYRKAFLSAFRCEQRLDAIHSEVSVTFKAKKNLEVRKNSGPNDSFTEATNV

[2] = molecular target: T2, Neuropeptide Y receptor type 1 (Homo sapiens, UniProt P25929); assay: IC50 of human NPY-Y1 blockers – cell-based, dose response (AID 1277); assay type: functional
T2 sequence (P25929 whole entry): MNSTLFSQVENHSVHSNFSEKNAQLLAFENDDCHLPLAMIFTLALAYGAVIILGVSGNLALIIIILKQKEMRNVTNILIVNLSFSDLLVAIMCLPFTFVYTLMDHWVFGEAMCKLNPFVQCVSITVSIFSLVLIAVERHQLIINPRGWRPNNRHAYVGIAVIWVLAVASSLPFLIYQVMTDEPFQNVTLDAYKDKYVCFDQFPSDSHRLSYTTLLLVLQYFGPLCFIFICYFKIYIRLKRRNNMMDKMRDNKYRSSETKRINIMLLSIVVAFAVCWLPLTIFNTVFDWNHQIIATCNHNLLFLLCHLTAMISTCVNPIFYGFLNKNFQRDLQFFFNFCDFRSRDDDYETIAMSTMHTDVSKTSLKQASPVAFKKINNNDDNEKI

[3] = system: Streptococcus sp. 'group A'; assay: Streptococcus pyogenes SK(-)GAS viability under kanamycin – luminescence, BacTiterGlo, confirmation, counter-screen for streptokinase expression inhibitor project, dose response (AID 1900); assay type: functional, organism-based
[4] = molecular target: T3, Streptokinase A (Streptococcus pyogenes serotype M1, UniProt P10520); assay: viability-normalized secreted streptokinase activity reduction – plasminogen activation absorbance, OD405, dose response (AID 1914); assay type: functional, Streptococcus pyogenes M1 GAS;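 note: secreted streptokinase activity via plasminogen activation per viability signal from cell pellet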
T3 sequence (P10520 whole entry): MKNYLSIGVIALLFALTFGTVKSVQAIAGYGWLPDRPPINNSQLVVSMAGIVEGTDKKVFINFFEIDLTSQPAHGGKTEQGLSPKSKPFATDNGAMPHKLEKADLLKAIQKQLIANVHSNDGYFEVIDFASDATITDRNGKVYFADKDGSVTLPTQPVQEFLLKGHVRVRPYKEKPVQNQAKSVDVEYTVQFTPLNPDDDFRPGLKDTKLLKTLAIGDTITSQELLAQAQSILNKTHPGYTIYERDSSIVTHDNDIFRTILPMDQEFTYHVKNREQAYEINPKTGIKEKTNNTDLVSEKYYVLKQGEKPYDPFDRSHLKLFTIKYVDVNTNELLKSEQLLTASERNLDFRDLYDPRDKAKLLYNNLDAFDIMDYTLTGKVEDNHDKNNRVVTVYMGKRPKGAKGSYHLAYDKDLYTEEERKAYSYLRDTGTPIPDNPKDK

[5] = molecular target: 5-hydroxytryptamine receptor 1E (Homo sapiens, UniProt P28566); assay: Counterscreen assay for S1P3 antagonists: Dose response cell-based high throughput screening assay to identify antagonists of the 5-Hydroxytryptamine Receptor Subtype 1E (5HT1E). [Related pubchem assays: 1429, 485 ]; assay type: functional
[6] = molecular target: Sphingosine 1-phosphate receptor 3 (Homo sapiens, UniProt Q99500); assay: Dose response cell-based high throughput screening assay for antagonists of the Sphingosine 1-Phosphate Receptor 3 (S1P3). [Related pubchem assays: 1429, 485 ]; assay type: functional
[7] = system: Streptococcus; assay: GAS UMAA2166 growth inhibition – luminescence, BacTiterGlo, counter-screen for streptokinase expression inhibitor project, dose response (AID 1915); assay type: functional, organism-based;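 note: potency for reduction of bacterial viability or growth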
[8] = A549 cell cytotoxicity, dose response, cytotoxicity control, plate reader, cherry-pick, antagonist series (AID 743412); assay type: functional, cell-based
[9] = toxicity toward HepG2 liver cells – cell-based, plate reader, cherry-pick, antagonist series, cytotoxicity control, dose response (AID 743416); assay type: functional
[10] = blockers of bursicon-stimulated LGR2 cAMP reporter – cell-based, HEK293, CRE-luciferase reporter, cherry pick, set 2, dose response (AID 743343); assay type: functional;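 note: transfected cells were stimulated with diluted bursicon conditioned medium after compound addition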
[11] = blockade of melanocortin 4 receptor signaling – cell-based, plate reader, cherry pick, counter-screen for LGR2 antagonist project, dose response (AID 743444); assay type: functional;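 note: transfected HEK 293 cells stimulated with alpha-MSH peptide; potency of inhibitors of the alpha-MSH evoked signal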
[12] = viability loss in HEK293 cells – cell-based, plate reader, cherry-picked samples, cytotoxicity control, dose response (AID 743446); assay type: functional
[13] = molecular target: Mucolipin-3 (Homo sapiens, UniProt Q8TDD5); assay: Dose response cell-based high-throughput screening assay for agonists of the transient receptor potential channel ML3 (TRPML3). [Related pubchem assays: 1526, 1424, 1448 ]; assay type: functional
[14] = molecular target: Ion channel NompC (Danio rerio, UniProt Q7T1G6); assay: Fluorescence counterscreen assay for TRPML3 agonists: dose response cell-based high-throughput screening assay to identify agonists of the transient receptor potential channel N1 (TRPN1). [Related pubchem assays: 1526, 1424, 1448 ]; assay type: functional
[15] = molecular target: Luciferin 4-monooxygenase (Photinus pyralis, UniProt P08659); assay: Counter Screen for Luciferase-based Assay Positives. [Related pubchem assays: 620, 618, 411 ]
[16] = system: HT-1080; assay: HT1080 cell viability loss – fluorescence readout (AID 620); assay type: functional, cell-based; details: Homo sapiens
[17] = molecular target: Mothers against decapentaplegic homolog 3 (Homo sapiens, UniProt P84022); assay: blockers of Smad3 complex formation in lysate – cell lysate, secondary confirmation, chemiluminescent ELISA, HEK293 lysate, dose response (AID 1058); assay type: functional
Chain of Mothers against decapentaplegic homolog 3 (P84022 whole entry): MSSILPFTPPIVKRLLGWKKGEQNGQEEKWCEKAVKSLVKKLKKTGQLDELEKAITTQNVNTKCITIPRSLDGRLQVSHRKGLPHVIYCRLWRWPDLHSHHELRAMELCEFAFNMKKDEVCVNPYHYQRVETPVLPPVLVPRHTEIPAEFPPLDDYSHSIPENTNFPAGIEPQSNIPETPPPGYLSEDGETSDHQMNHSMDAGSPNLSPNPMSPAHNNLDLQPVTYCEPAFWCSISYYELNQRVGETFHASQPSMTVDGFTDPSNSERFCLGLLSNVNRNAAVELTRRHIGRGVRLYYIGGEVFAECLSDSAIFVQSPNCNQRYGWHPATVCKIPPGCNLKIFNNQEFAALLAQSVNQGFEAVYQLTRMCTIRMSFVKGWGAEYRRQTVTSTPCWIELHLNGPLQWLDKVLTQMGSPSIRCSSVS

Chain of Sphingosine 1-phosphate receptor 3 (Q99500 whole entry): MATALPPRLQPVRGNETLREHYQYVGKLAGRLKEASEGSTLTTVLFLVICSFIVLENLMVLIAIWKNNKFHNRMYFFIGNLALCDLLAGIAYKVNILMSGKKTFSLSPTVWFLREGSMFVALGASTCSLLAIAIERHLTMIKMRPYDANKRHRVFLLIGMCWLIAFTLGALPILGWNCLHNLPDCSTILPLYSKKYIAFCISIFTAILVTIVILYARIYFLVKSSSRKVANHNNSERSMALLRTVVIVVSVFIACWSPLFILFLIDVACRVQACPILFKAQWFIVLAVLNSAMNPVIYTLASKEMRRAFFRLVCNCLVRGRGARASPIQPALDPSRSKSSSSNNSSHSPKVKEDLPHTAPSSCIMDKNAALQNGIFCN
Chain of Luciferin 4-monooxygenase (P08659 whole entry): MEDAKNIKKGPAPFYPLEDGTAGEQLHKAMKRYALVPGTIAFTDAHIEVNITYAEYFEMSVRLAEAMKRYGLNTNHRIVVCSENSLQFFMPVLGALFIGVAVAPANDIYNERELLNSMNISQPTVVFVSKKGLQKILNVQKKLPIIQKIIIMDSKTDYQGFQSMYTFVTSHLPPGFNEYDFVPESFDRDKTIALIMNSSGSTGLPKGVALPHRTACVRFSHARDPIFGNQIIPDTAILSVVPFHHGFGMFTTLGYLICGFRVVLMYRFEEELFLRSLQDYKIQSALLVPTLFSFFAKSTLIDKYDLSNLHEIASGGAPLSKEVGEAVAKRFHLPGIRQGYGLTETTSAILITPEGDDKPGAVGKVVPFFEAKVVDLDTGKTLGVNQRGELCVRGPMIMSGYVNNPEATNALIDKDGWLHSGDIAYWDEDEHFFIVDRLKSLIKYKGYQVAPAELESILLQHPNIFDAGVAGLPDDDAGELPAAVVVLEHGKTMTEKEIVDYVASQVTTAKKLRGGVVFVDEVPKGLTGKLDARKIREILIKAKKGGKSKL
Chain of Ion channel NompC (Q7T1G6 whole entry): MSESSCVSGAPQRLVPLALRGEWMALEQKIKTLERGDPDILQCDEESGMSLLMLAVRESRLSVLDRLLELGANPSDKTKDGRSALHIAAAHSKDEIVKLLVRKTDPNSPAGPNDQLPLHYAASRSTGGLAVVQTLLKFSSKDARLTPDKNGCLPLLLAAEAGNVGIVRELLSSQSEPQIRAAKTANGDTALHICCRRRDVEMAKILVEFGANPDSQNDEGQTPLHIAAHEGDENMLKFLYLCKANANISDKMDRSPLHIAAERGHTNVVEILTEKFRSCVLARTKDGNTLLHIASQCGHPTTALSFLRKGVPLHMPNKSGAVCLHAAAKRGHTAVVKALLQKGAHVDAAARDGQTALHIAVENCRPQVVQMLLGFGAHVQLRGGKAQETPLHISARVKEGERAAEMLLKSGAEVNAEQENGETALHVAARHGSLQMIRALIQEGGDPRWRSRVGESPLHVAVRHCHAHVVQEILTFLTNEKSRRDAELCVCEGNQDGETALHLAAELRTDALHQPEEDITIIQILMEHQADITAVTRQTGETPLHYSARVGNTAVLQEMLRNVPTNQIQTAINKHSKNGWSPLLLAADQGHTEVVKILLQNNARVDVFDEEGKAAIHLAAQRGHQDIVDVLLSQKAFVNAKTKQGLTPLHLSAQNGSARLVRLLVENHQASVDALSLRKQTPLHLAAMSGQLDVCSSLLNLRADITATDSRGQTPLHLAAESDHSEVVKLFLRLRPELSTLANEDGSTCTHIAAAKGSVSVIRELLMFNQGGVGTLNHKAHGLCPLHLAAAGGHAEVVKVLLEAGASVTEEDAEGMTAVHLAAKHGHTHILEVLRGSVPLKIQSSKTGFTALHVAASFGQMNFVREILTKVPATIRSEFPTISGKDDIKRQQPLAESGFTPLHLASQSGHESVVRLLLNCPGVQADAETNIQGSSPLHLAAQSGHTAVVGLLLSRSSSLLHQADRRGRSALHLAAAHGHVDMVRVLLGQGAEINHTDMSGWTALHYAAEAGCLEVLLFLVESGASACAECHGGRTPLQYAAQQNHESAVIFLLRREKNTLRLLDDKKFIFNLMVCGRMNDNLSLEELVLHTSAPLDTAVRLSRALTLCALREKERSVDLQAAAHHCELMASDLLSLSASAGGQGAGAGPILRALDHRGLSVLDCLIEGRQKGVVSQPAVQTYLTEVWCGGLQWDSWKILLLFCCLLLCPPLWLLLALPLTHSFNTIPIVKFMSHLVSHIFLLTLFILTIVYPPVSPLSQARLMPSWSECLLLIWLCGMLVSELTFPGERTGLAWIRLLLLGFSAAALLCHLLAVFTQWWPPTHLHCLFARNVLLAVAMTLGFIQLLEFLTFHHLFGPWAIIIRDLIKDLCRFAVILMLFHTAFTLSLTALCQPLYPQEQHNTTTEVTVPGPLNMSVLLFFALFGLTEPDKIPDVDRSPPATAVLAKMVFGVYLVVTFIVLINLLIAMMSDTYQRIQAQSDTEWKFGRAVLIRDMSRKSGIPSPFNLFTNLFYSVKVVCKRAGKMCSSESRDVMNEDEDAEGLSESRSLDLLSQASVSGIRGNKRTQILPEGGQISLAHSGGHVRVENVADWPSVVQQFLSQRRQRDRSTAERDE
Chain of Mucolipin-3 (Q8TDD5 whole entry): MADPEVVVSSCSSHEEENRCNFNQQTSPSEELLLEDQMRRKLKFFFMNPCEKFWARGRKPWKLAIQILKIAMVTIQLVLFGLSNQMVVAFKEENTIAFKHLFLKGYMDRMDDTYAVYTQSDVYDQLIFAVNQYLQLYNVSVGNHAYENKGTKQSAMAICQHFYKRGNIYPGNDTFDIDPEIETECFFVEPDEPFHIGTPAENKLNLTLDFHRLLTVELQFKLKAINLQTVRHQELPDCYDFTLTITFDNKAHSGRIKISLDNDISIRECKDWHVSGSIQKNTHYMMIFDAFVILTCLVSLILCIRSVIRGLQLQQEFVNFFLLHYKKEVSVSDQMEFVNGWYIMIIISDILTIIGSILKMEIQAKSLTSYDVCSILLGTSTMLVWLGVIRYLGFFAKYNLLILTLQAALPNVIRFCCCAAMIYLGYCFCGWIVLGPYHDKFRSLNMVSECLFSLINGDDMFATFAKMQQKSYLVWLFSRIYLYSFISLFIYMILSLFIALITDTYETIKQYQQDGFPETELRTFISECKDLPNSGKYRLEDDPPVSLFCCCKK
Chain of 5-hydroxytryptamine receptor 1E (P28566 whole entry): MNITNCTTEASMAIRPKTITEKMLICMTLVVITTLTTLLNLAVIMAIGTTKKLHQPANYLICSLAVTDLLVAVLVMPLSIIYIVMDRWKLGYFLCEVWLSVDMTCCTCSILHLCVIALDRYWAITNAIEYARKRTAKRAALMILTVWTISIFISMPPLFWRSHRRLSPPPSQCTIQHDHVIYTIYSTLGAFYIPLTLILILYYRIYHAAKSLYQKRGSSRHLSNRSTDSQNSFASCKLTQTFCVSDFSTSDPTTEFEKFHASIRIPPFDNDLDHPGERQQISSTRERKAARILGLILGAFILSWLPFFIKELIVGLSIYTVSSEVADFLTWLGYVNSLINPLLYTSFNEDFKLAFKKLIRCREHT

Q: What does the source list for COC(=O)[C@@]1(Cc2ccc(F)cc2)[C@H]2c3cc(C(=O)N4CCCC4)n(Cc4ccc(C(F)(F)F)nc4)c3C[C@H]2CN1C(=O)c1ccccc1?
A: IC50 [1]: > 35 µM (not active); IC50 [2]: > 35 µM (not active)

Q: Which results are given for Cc1cccc(Cn2nc(C(C)(C)C)cc2C(=O)Nc2ccc(F)cc2)c1?
A: EC50 [3]: 7.66 µM (active); EC50 [4]: 1.9 µM (active); IC50 [5]: 3.86 µM (active); IC50 [6]: 5.22 µM (active); EC50 [7]: 16.3 µM (active); AC50 [8]: 26.5 µM (active); AC50 [9]: > 52 µM (inactive); AC50 [10]: 14.6 µM (active); AC50 [11]: 26.4 µM (active); AC50 [12]: 8.76 µM (active)

Q: Which EC50 [13] does the source give for Cc1cc(C)c(C(=O)c2ccc(C(=O)N(C(C)C)C(C)C)cc2)c(C)c1 here?
A: 2.24 µM (active)

Q: And the EC50 [14]?
A: > 29.9 µM (not active)

Q: Which EC50 [15] does the source give for Cc1nn2cc(-c3ccccc3)nc2s1 here?
A: 0.7 µM (active)

Q: And the EC50 [16]?
A: > 50 µM (not active)

Q: For O=C1OC2(c3ccc(O)c(O)c3Oc3c2ccc(O)c3O)c2c(Cl)c(Cl)c(Cl)c(Cl)c21, which IC50 [17] is on record?
A: 12.4 µM (active)
